The record followed here is ChEMBL document CHEMBL3867425, “Synthesis and cytotoxicity evaluation of aryl triazolic derivatives and their hydroxymethine homologues against B16 melanoma cell line” (Eur J Med Chem, 2016).

A short description of the assay: Cytotoxicity against mouse B16 cells assessed as decrease in cell viability after 48 hrs by MTT assay. The settings on record: B16, 48 h. It counts as functional, cell-based. (Formazan colour is commonly taken as a measure of viable cells.)

Molecules are shown by their SMILES. pIC50: −log10 of the molar value.

Take `COc1ccc(Cn2cc(-c3ccc(OC)cc3)nn2)cc1`: the negative-log IC50 (pIC50) is < 4.00.

As to `Cc1ccc(C(O)c2cn(Cc3ccccc3)nn2)cc1` (stereo unspecified), the negative-log IC50 (pIC50) was < 4.00.

Take `COc1ccc(-c2cn(C[C@H]3COC(C)(C)O3)nn2)cc1`: the negative-log IC50 (pIC50) is < 4.00.

In the case of `COc1ccc(C(O)c2cn(C[C@H]3COC(C)(C)O3)nn2)cc1` (stereo partly specified), the pIC50 was < 4.00.

In the case of `CCOC(=O)Cn1cc(C(O)c2ccc3ccccc3c2)nn1` (stereo unspecified), the negative-log IC50 (pIC50) is < 4.00.

`COc1ccc(Cn2cc(C(O)c3ccc(OC)c(OC)c3OC)nn2)cc1` (stereo unspecified): the negative-log IC50 (pIC50) was < 4.00.

With `COc1ccc(Cn2cc(-c3ccc([N+](=O)[O-])cc3)nn2)cc1`, the negative-log IC50 (pIC50) was 4.72.

As to `CC1(C)OC[C@H](Cn2cc(-c3ccc(C(F)(F)F)cc3)nn2)O1`, the negative-log IC50 (pIC50) was < 4.00.

For `COc1ccc(Cn2cc(-c3ccc(C(F)(F)F)cc3)nn2)cc1`, the pIC50 is 4.76.

Take `COc1ccc(Cn2cc(-c3ccc4ccccc4c3)nn2)cc1`: the negative-log IC50 (pIC50) was < 4.00.

In the case of `CCOC(=O)Cn1cc(-c2ccc([N+](=O)[O-])cc2)nn1`, the negative-log IC50 (pIC50) was < 4.00.

With `COc1ccc(-c2cn(C[C@H]3COC(C)(C)O3)nn2)c(OC)c1OC`, the pIC50 was < 4.00.

With `O=[N+]([O-])c1ccc(-c2cn(Cc3ccccc3)nn2)cc1`, the pIC50 is 5.29.

As for `COc1ccc(Cn2cc(-c3ccc(C)cc3)nn2)cc1`, the negative-log IC50 (pIC50) is 4.71.

For `COc1ccc(C(O)c2cn(C[C@H]3COC(C)(C)O3)nn2)c(OC)c1OC` (stereo partly specified), the negative-log IC50 (pIC50) is < 4.00.

Consider `CC1(C)OC[C@H](Cn2cc(-c3ccc4ccccc4c3)nn2)O1`, for which the pIC50 was 4.92.

Turning to `COc1ccc(-c2cn(CCO)nn2)cc1`, the negative-log IC50 (pIC50) is < 4.00.

Turning to `CC1(C)OC[C@H](Cn2cc(C(O)c3ccc([N+](=O)[O-])cc3)nn2)O1` (stereo partly specified), the pIC50 was < 4.00.

With `COc1ccc(C(O)c2cn(CCO)nn2)c(OC)c1OC` (stereo unspecified), the negative logarithm of the IC50 (pIC50) is < 4.00.

With `Cc1ccc(-c2cn(C[C@H]3COC(C)(C)O3)nn2)cc1`, the pIC50 is < 4.00.

Turning to `CC1(C)OC[C@H](Cn2cc(-c3ccc([N+](=O)[O-])cc3)nn2)O1`, the negative-log IC50 (pIC50) is < 4.00.

`COc1ccc(Cn2cc(C(O)c3ccc(C)cc3)nn2)cc1` (stereo unspecified): the pIC50 was < 4.00.

Take `COc1ccc(Cn2cc(C(O)c3ccc(OC)cc3)nn2)cc1` (stereo unspecified): the pIC50 is < 4.00.

As for `COc1ccc(Cn2cc(C(O)c3ccc([N+](=O)[O-])cc3)nn2)cc1` (stereo unspecified), the negative-log IC50 (pIC50) was < 4.00.

Turning to `COc1ccc(C(O)c2cn(CCO)nn2)cc1` (stereo unspecified), the pIC50 was < 4.00.

Turning to `CCOC(=O)Cn1cc(-c2ccc3ccccc3c2)nn1`, the negative-log IC50 (pIC50) was < 4.00.

With `Cc1ccc(C(O)c2cn(C[C@H]3COC(C)(C)O3)nn2)cc1` (stereo partly specified), the negative-log IC50 (pIC50) was < 4.00.

Regarding `COc1ccc(-c2cn(Cc3ccccc3)nn2)cc1`, the negative-log IC50 (pIC50) was < 4.00.

In the case of `OC(c1ccc(C(F)(F)F)cc1)c1cn(Cc2ccccc2)nn1` (stereo unspecified), the pIC50 is < 4.00.

On to `CCOC(=O)Cn1cc(-c2ccc(OC)c(OC)c2OC)nn1`, for which the pIC50 is < 4.00.

For `OCCn1cc(-c2ccc(C(F)(F)F)cc2)nn1`, the pIC50 was < 4.00.

As for `COc1ccc(-c2cn(Cc3ccccc3)nn2)c(OC)c1OC`, the pIC50 was 4.56.

`c1ccc(Cn2cc(-c3ccc4ccccc4c3)nn2)cc1`: the negative-log IC50 (pIC50) is 5.41.

With `COc1ccc(Cn2cc(-c3ccc(OC)c(OC)c3OC)nn2)cc1`, the negative logarithm of the IC50 (pIC50) was < 4.00.

`Cc1ccc(-c2cn(CCO)nn2)cc1`: the negative-log IC50 (pIC50) was < 4.00.

Turning to `OCCn1cc(-c2ccc3ccccc3c2)nn1`, the negative logarithm of the IC50 (pIC50) was < 4.00.

For the compound `FC(F)(F)c1ccc(-c2cn(Cc3ccccc3)nn2)cc1`, the pIC50 is < 4.00.

Take `OC(c1ccc2ccccc2c1)c1cn(Cc2ccccc2)nn1` (stereo unspecified): the pIC50 was 4.54.

Take `Cc1ccc(-c2cn(Cc3ccccc3)nn2)cc1`: the pIC50 was < 4.00.

`CC1(C)OCC(Cn2cc(C(O)c3ccc(C(F)(F)F)cc3)nn2)O1` (racemic): the negative-log IC50 (pIC50) is < 4.00.

Regarding `CC1(C)OCC(Cn2cc(C(O)c3ccc4ccccc4c3)nn2)O1` (racemic), the pIC50 was 4.57.

As for `Cc1ccc(-c2cn(CC3COC(C)(C)O3)nn2)cc1` (racemic), the pIC50 was 4.38.

Consider `CC1(C)OCC(Cn2cc(-c3ccc([N+](=O)[O-])cc3)nn2)O1` (racemic), for which the negative-log IC50 (pIC50) is < 4.00.

For `CC1(C)OCC(Cn2cc(-c3ccc4ccccc4c3)nn2)O1` (racemic), the pIC50 is 5.18.

Regarding `CC1(C)OCC(Cn2cc(-c3ccc(C(F)(F)F)cc3)nn2)O1` (racemic), the pIC50 was 4.87.

Turning to `Cc1ccc(C(O)c2cn(CC3COC(C)(C)O3)nn2)cc1` (racemic), the negative-log IC50 (pIC50) was < 4.00.

The term pIC50 denotes −log10 of the IC50, conventionally taken in molar units.
